Experiment [1] addresses T1, Serine/threonine-protein kinase mTOR (Homo sapiens, UniProt P42345). Put plainly: Inhibition of mTOR.
For experiment [2], the target named is Phosphatidylinositol 4,5-bisphosphate 3-kinase catalytic subunit alpha isoform (Homo sapiens, UniProt P42336). The experiment in a line: Inhibition of PI3Kalpha.
Experiment [3] is described as follows: Selectivity ratio of IC50 for PI3Kaplha to IC50 for mTOR.
The target in experiment [4] is T1, Serine/threonine-protein kinase mTOR. The experiment in a line: Inhibition of mTOR-mediated p70S6K phosphorylation at Thr389 in human PC3 cells. In kind it is cell-based, PC-3.

In general, IC50 refers to the concentration that inhibits the measured activity by half.

Phosphatidylinositol 4,5-bisphosphate 3-kinase catalytic subunit alpha isoform, sequence (P42336 whole entry, canonical isoform): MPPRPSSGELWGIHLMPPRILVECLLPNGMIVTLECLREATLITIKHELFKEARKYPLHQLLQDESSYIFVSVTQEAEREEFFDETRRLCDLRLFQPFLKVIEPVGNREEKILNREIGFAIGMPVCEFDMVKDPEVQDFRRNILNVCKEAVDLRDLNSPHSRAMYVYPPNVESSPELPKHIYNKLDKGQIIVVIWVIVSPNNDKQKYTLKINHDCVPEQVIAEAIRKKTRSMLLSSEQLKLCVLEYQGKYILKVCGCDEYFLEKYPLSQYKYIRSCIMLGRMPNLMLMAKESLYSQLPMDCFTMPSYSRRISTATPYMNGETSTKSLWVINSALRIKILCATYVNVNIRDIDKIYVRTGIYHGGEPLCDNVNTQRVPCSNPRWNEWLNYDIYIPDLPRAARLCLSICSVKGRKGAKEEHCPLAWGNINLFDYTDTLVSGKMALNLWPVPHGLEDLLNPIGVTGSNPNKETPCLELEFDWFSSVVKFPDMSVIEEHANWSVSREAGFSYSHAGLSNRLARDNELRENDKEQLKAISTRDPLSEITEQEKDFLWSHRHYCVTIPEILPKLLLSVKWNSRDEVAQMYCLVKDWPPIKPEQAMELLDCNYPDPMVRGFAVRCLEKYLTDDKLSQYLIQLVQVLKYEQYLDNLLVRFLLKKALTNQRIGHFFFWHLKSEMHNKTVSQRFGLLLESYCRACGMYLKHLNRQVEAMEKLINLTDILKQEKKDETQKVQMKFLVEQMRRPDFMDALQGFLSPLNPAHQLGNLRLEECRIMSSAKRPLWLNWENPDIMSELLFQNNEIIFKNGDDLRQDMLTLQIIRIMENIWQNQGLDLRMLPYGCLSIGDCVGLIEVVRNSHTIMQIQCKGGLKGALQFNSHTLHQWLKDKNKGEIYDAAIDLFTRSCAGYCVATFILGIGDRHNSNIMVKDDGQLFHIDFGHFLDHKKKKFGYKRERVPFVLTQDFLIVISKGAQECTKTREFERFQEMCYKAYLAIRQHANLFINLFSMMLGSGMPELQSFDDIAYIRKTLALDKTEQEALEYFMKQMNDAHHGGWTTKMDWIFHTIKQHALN

In the case of `CCc1cc(C(F)(F)F)nn1-c1nc(-c2cccc3[nH]ccc23)nc(N2CCOCC2)n1`, the results for the IC50 in experiment [1], in experiment [2] and in experiment [4] were 71 nM, 4050 nM and 490 nM, respectively. Besides, the Ratio IC50 in experiment [3] was 57.
As for `Clc1cccc(Nc2nc(N3CCOCC3)nc(-n3cccn3)n2)c1`, the IC50 was determined as 570 nM in experiment [1] and 2800 nM in experiment [2]. Moreover, the Ratio IC50 in experiment [3] came to 4.9.
On to `FC(F)c1nc2ccccc2n1-c1nc(N2CCOCC2)nc(N2CCOCC2)n1` [ZSTK-474], for which it took 350 nM to reach half-maximal inhibition in experiment [1] (IC50).
Take `CCc1nccn1-c1nc(-c2cccc3[nH]ccc23)nc(N2CCOCC2)n1`: the IC50 in experiment [1] came to 26 nM; in experiment [2], 89 nM; in experiment [4], 96 nM. The Ratio IC50 in experiment [3] is 3.4.
In the case of `Cc1ccc(-c2nc(N3CCOCC3)nc(-n3ccnc3C)n2)c2cc[nH]c12`, the values for the IC50 in experiment [1], in experiment [2] and in experiment [4] were 18 nM, 1100 nM and 84 nM, respectively. Also, the Ratio IC50 in experiment [3] came to 60.
As for `Cc1nccn1-c1nc(-c2cccc(O)c2)nc(N2CCOCC2)n1`, the IC50 was found to be 95 nM in experiment [1] and 53 nM in experiment [2]. Also, the Ratio IC50 in experiment [3] is 0.6.
Taken in the same sequence, the figures for `Cc1nccn1-c1nc(-c2cnc(N)nc2)nc(N2CCOCC2)n1` were 420 nM, 25 nM and 0.06.

The values are drawn from ChEMBL document CHEMBL1938252, “Structure-based optimization of morpholino-triazines as PI3K and mTOR inhibitors” (Bioorg Med Chem Lett, 2012).
